Measured values: patent publication US12351587B2, “Bicyclic compound as RIP-1 kinase inhibitor and application thereof” (MEDSHINE DISCOVERY INC., priority 2019, dated 2025)

Columns and labels:
L929 cells = assay: In vitro activity assay of mouse RIP1: L929 cell TNFα/QVD-OPh-induced necroptosis; format: cell-based; details: TNF-α 50 ng/mL + Q-VD 50 μM, 24 h, CellTiter Glo
Description: Assay Example 2: In Vitro Activity Assay of Mouse RIP1
L929 (purchased from ATCC, Item No.: CCL-1)
Instrument Microplate reader (Perkin Elmer, Envision) Formulation of Reagents L929 cell complete medium: EMEM+10% horse serum (volume ratio)+1% double antibiotics (volume ratio) Assay Step • 1. The cultured L929 cells were digested with trypsin, centrifuged, resuspended in complete culture medium, and then counted. The cell concentration was then diluted to 1×10^5/mL with complete culture medium. • 2. The cell suspension was added to a 96-well plate at 100 μL per well and incubated at 37° C. and 5% CO2 for 24 h. • 3. Different concentrations of assay compounds were added to each well, and dimethyl sulfoxide was added to the control group. The plate was incubated at 37° C. and 5% CO2 for 1 h. • 4. To each well were added TNF-α at a final concentration of 50 ng/mL and Q-VD at a final concentration of 50 μM, and the plate was incubated at 37° C. and 5% CO2 for 24 h. • 5. To each well was added 50 μL of CellTiter Glo […], and the plate was shaken in the dark for 10 min. • 6. The plate was read on the microplate reader.

[1] = Pharmacokinetics in C57BL/6 mice; format: in vivo; details: C57BL/6, plasma, mouse
Description: Eight healthy adult C57BL/6 mice (6-9 weeks old, purchased from Shanghai Lingchang Biotechnology Co., Ltd.) were selected, and randomly divided into two groups, 4 mice in each group (n=2, cross blood sampling). One group was given 0.5 mg/kg of the assay compound by intravenous injection, and the other group was given 1 mg/kg of the assay compound by gavage. Plasma samples were collected respectively from animals in the intravenous group and gavage group at 0.083, 0.25, 0.5, 1.0, 2.0, 4.0, 6.0, 8.0, 24 hours after administration. The blood concentration was determined by LC-MS/MS method. Relevant pharmacokinetic parameters were calculated by WinNonlin™ Version 6.3 (Pharsight, Mountain View, CA) pharmacokinetic software using non-compartmental model and linear logarithmic trapezoidal method. AUC0-last represents the area under the plasma concentration-time curve from zero time point to the last detectable concentration time point; Cmax represents the peak concentration; Tmax represents the time to reach the peak; T1/2 represents the half-life. CL represents the clearance rate; Tlast represents the last quantifiable time point; p.o. represents per os; i.v. represents intravenous injection; and F % represents oral bioavailability.

[2] = Plasma protein binding rate (PPB), mouse plasma; format: in vitro ADME, CD-1 mice; details: 2 μM, dialysis 4 hours 37° C.
Description: (§1) 796 μL of bank plasma from humans, SD rats and CD-1 mice (plasma purchased from BioreclamationIVT) were weighed, and the assay compound working solution or warfarin working solution was added so that the final concentration of the assay compound and warfarin in the plasma sample was 2 μM. The samples were mixed thoroughly. The final concentration of DMSO in the organic phase was 0.5%, 50 μL of plasma samples of the assay compound and warfarin were pipetted to a sample receiving plate, and the corresponding volume of the corresponding blank plasma or buffer was added immediately, so that the final volume in each sample well was 100 μL, wherein the volume ratio of plasma:dialysis buffer was 1:1. Stop solution was then added to these samples. These samples were used as T0 samples for determination of recovery and stability. The plasma samples of the assay compound and warfarin were added to the dosing end of each dialysis well, and blank dialysis buffer was added to the corresponding receiving end of the dialysis well. […] All samples were subjected to protein precipitation, and then analyzed by LC/MS/MS. Unbound rate (% Unbound), bound rate (% Bound), and recovery rate (% Recovery) of the compound were calculated using the following formulae: % Unbound=100*FC/TC, % Bond=100−% Unbound, and % Recovery=100*[…]/T0, […]

LIMK2 = biological target: T1, LIMK2 (Homo sapiens, UniProt P53671); assay: Kinase selectivity assay (Eurofins, 33P radiolabeled kinase activity): LIMK2; format: biochemical; details: WX009 1 μM, ATP 10 μM, read-out: Inhibition rate
T1 construct: purchased Eurofins Pharma Discovery Service
Description: The purpose of this assay was to detect the in vitro inhibitory activity of WX009 on a variety of kinases. The kinases used in this assay included 413 kinases, and the activity detection method was provided by Eurofins Pharma Discovery Service A method of detecting ^33P radiolabeled kinase activity was used for the assay. The concentration of WX009 was 1 μM, and the concentration of ATP was 10 μM.

[3] = Plasma protein binding rate (PPB), human plasma; format: in vitro ADME; details: 2 μM, dialysis 4 hours 37° C.
Description: as §1

T1 sequence (P53671 whole entry, species assumed): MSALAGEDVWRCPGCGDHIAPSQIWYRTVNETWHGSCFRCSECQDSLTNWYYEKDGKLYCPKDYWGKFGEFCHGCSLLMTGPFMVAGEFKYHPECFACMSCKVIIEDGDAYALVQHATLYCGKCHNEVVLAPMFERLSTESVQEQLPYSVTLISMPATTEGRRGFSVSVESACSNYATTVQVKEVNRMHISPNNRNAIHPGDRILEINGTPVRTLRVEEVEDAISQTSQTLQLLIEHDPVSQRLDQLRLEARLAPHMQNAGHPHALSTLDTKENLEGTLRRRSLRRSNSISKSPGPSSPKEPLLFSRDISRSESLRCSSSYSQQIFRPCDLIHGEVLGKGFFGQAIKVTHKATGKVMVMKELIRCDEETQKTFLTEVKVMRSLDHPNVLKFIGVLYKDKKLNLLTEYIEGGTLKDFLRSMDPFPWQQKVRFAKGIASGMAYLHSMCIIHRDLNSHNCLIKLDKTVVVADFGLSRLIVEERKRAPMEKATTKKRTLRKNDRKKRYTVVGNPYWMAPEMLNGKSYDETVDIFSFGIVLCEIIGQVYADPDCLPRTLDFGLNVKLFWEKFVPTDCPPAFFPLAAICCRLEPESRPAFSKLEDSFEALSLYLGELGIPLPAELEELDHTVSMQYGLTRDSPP

Molecule `CN1C(=S)[C@@H](NC(=O)c2ncn(Cc3ccccc3)n2)COc2cccnc21` [WX009] has an IC50 (L929 cells) of 0.103 µM, an AUC(0-t) ([1]; iv, i.v. 0.5 mg/kg) of 2.21 µM·h and a clearance ([1]; iv, i.v. 0.5 mg/kg) of 9.4 mL/min/kg. For the same molecule, the half-life ([1]; iv, i.v. 0.5 mg/kg) was 84 min, the Vd ([1]; iv, i.v. 0.5 mg/kg, read-out: Vdss) was 1.1 L/kg and the bioavailability ([1]; oral, p.o. 1 mg/kg vs i.v. 0.5 mg/kg) was 89.1%. It also gave an AUC(0-t) ([1]; po, p.o. 1 mg/kg) of 3.85 µM·h, a Cmax ([1]; po, p.o. 1 mg/kg) of 1500 nM and a Tmax ([1]; po, p.o. 1 mg/kg) of 30 min. For the same molecule, the PPB_Unbound [2] was 7.0%, the inhibition at 1 µM (LIMK2) was 50 to 79% and the PPB_Unbound [3] was 5.7%.
